From patent US20070003987A1, “Screening method for substance binding to merozoite surface protein-1/42” (priority 2003, published 2007) come the findings set out here.

Assay [1] deals with T1, MSP142 (Plasmodium falciparum, UniProt Q8I0U8). Put plainly: competition binding of analogues 258 and 264 against suramin. Conditions: MSP142 0.1 mg/ml, 1 hour. As for the experimental part:
MSP142 (0.1 mg/ml) and fixed concentrations of analogue 258 (5 μM) or 264 (10 μM) were premixed and 90 μL added to a 384-well black polypropylene plate. Suramin was added to give a final concentration in the range 0.01 to 200 μM in a total reaction volume of 100 μL. The plates were incubated at room temperature protected from light for 1 hour, and then read as before. Results are shown in FIG. 10, which is a graph of fluorescence (arbitary units) against concentration of suramin competitor for analogue 258 (white squares) and 264 (black circles).

The target in assay [2] is T2, MSP119 from P. falciparum (Plasmodium falciparum, UniProt P04933, S1528A).
T2 construct: contained the 96 amino acid MSP119 fragment, preceded by a single His residue; N-terminal leader […]; (His6 + Factor Xa site); made in house; host or cells: Pichia pastoris (vector pPIC9K)
Put plainly: NMR titration of 15N labelled MSP119 with suramin. Type of assay: binding. An excerpt:
(§1) Plasmodium falciparum MSP119 (Swiss-Prot 04933) was expressed from a synthetic gene optimised for Pichia pastoris expression (European Patent No. EP1180120). This construct, inserted at the SnaBI site of vector pPIC9K (Invitrogen), contained the N-terminal leader sequence YHHHHHHIEGRH preceding the MSP119 sequence. A point mutation (Ser3 to Ala) was also introduced to eliminate N-glycosylation at Asn1. Following purification of MSP119 as described previously (Morgan et al, 1999 J. Mol. Biol. 289, 113-122), the N-terminal tag was cleaved with Factor Xa (New England Biolabs) and MSP119 was purified by gel filtration (Superdex 200). The fmal product contained the 96 amino acid MSP119 fragment, preceded by a single His residue.
NMR experiments were carried out on Varian spectrometers operating at proton frequencies of 500, 600 and 800 MHz. Suramin (0.03-16.0 mM) ^1H spectra were recorded at 5 to 35° C. […] MSP119/suramin samples were examined with either unlablled or ^15N labelled MSP119 in 50 mM sodium phosphate and 100 mM NaCl in 90% H2O/10% D2O at pH 6.5 (pH values are pH meter readings uncorrected for deuterium isotope effects). […] 1D ^1H and 2D ^1H-^15N HSQC NMR spectra were recorded for each concentration of suramin. […]

Assay [3] concerns the target T1, MSP142. Kind of assay: inhibition of suramin binding (fluorescence, 384-well plate). Conditions: λex 320 nm/λem 405 nm. As for the experimental part: MSP142 (0.1 mg/ml), 10 μM suramin analogue and 2 μM suramin were combined in a 384-well black polypropylene low binding plate (total reaction volume 100 μL). Fluorescence was read at λex 320 nm/λem 405 nm on a BMG Polarstar fluorimeter. Readings were taken before, and 1 hour after, addition of suramin.

Assay [4] has as its target T2, MSP119 from P. falciparum. Kind of assay: binding of suramin by fluorimetry.
Text: as §1
The intrinsic fluorescence of suramin was used to determine its capacity to bind to the various MSP1-derived proteins. The fluorescence was measured using a Perkin Elmer LS-3B or a Spex Fluoro Max 2 fluorimeter. Suramin was excited at a wavelength of 315 or 330 nm with 2.5 nm resolution, the emission spectra were measured at wavelengths ranging from 350-450 nm. Suramin and the MSP1 proteins were diluted in 20 mM NaH2PO4, 150 mM NaCl at pH 7.2 and analysed at 10 or 20° C. Titrations were performed by adding aliquots of the suramin solution to the MSP1 solution. […] The Kd for the suramin-MSP1 binding was determined from three independent experiments.

For a further assay, the system named is P. falciparum (FCB-1). Put plainly: growth inhibition assay by [3H] hypoxanthine uptake. Format: cell-based, Plasmodium falciparum. Conditions: Plasmodium falciparum, Erythrocyte, read-out: IC50, inhibition of erythrocyte invasion ([3H] hypoxanthine incorporation, FIG. 2). How it is done: Asexual blood stages of P. falciparum (FCB-1) were maintained at 37° C. in RPMI 1640/Albumax medium (Gibco) supplemented with 2 mM L-glutamine as previously described (Blackman, 1994 Methods Cell Biol. 45, 213-220). Cultures were gassed with 7% CO2, 5% O2 and 88% N2 and maintained by routine passage in fresh human erythrocytes. Parasites were synchronised by Percoll and sorbitol treatment (Holder & Freeman, 1982 J. Exp. Med. 156, 1528-1538); schizonts were purified by centrifugation over Percoll and then returned to culture in the presence of fresh erythrocytes. After 4 h, during which time released merozoites invaded erythrocytes, the cells were treated with 5% sorbitol for 10 min to lyse the residual schizonts, before returning the parasites to culture.
Suramin and NTS were also assayed for P. falciparum growth inhibition using [^3H] hypoxanthine uptake (generally as described by Desjardins et al, 1979 Antimicrob. Agents Chemother. 16, 710-718). Serial dilutions of the compounds in 96-well plates were incubated at 37° C. with purified mature schizonts at a final parasitaemia of ^˜0.5% and a haematrocrit of ^˜2% in triplicate cultures. […] The filters were wetted with scintillation cocktail and the bound radioactivity counted in a β-counter. […] The amount of radioactivity in each sample was expressed as a percentage of activity in the control wells containing no compound. […]

T1 sequence (Q8I0U8 1327-1699): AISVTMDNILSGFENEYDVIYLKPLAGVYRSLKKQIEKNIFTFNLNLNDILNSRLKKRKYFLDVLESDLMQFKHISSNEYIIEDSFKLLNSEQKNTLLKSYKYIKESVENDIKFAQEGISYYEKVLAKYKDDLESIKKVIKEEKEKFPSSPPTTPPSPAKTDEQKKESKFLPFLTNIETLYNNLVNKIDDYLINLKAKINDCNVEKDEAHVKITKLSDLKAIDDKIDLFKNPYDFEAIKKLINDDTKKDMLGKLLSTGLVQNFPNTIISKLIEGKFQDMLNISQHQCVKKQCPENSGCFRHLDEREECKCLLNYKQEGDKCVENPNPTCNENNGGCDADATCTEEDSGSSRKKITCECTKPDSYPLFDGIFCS
T2 sequence (P04933 1526-1618 S1528A): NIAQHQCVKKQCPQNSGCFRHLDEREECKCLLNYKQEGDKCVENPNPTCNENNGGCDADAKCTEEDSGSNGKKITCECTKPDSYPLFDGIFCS

As usually defined, the Kd is the concentration at which binding is half-saturated. A lower Kd goes with higher affinity. Turning to `Cc1ccc(C(=O)Nc2ccc(S(=O)(=O)O)c3cc(S(=O)(=O)O)cc(S(=O)(=O)O)c23)cc1NC(=O)c1cccc(NC(=O)Nc2cccc(C(=O)Nc3cc(C(=O)Nc4ccc(S(=O)(=O)O)c5cc(S(=O)(=O)O)cc(S(=O)(=O)O)c45)ccc3C)c2)c1` [suramin], the IC50 at MSP142 [1] (IC50, displacement of analogue 258 from MSP1 by suramin, analogue 258 at 5 μM) is 8 µM; on MSP142 [1] (IC50, displacement of analogue 264 from MSP1 by suramin, analogue 264 at 10 μM), 3 µM; in the assay with P. falciparum (FCB-1), 60 µM. The equilibrium dissociation constant (Kd) in assay [2] is about 15000 µM. Further, on MSP142 [3], the “signal to noise ratio of fluorescence signal” value stood at 1.8. Besides, the “enhancement of suramin fluorescence on addition to MSP119” value in assay [4] was “No fluorescence enhancement”.
